Experimental findings from ChEMBL document CHEMBL5131517 (ACS Med Chem Lett, 2022) are described below.

For orientation: Emax means the maximal effect, on the per cent scale that the assay sets. What is called Ki is a dissociation constant, usually derived from enzyme kinetics or from competition with a known ligand. One may read the inhibition as the relative decrease from the control value, in per cent. High values mean strong suppression, low ones little suppression.

The target of assay [1] is 5-hydroxytryptamine receptor 2A (Homo sapiens, UniProt P28223). The assay is described as follows: Agonist activity at human 5HT2A receptor stably expressed in Flp-In-T-REx-293 cells assessed as maximal Gq-mediated calcium flux by Fluo-4 direct dye based FLIPR Tetra assay relative to control. In kind it is functional, cell-based. The settings on record: filed as agonist. In general terms: A change in cytosolic calcium serves as a functional read-out for many receptors and channels.

The target of assay [2] is T1, 5-hydroxytryptamine receptor 1A (Homo sapiens, UniProt P08908).
T1 sequence (P08908 whole entry): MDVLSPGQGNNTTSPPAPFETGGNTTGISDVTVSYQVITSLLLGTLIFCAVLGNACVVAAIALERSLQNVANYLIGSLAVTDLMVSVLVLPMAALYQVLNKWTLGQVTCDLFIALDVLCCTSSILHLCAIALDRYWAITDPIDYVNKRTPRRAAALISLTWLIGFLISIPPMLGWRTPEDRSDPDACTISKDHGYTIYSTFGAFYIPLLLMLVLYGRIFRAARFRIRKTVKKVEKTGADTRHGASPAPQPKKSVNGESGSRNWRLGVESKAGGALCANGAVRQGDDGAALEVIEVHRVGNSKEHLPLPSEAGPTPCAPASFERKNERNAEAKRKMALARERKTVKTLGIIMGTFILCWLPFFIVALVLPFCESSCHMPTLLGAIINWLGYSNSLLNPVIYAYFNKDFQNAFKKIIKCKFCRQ
As to the kind of experiment: Binding affinity to 5HT1A receptor (unknown origin) assessed as inhibition constant.

For assay [3], the target named is T2, Muscarinic acetylcholine receptor M5 (Homo sapiens) (UniProt P08912).
T2 sequence (whole entry): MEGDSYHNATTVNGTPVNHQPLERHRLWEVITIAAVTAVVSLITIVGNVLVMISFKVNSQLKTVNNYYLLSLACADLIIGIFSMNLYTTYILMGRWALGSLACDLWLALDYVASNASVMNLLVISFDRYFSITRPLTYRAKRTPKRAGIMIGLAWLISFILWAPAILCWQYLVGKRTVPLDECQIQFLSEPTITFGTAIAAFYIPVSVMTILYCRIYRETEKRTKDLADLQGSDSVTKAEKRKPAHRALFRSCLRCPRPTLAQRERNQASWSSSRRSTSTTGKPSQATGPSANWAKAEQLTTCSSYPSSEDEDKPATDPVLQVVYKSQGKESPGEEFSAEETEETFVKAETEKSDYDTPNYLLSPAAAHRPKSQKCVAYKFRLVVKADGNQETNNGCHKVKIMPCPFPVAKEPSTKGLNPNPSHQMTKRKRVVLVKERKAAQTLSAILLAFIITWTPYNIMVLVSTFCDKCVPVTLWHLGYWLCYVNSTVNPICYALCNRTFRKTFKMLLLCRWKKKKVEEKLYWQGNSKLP
As to the kind of experiment: Inhibition of M5 receptor (unknown origin). As to conditions: concentration not given here.

For assay [4], the target named is 5-hydroxytryptamine receptor 1B (Homo sapiens, UniProt P28222). The assay is described as follows: Binding affinity to 5HT1B receptor (unknown origin) assessed as inhibition constant.
Assay [5] addresses Kappa-type opioid receptor (Homo sapiens) (UniProt P41145). The assay is described as follows: Inhibition of KOR receptor (unknown origin). As to conditions: concentration not given here.
Assay [6] deals with 5-hydroxytryptamine receptor 6 (Homo sapiens, UniProt P50406). As to the kind of experiment: Binding affinity to 5HT6 receptor (unknown origin) assessed as inhibition constant.
Assay [7] addresses 5-hydroxytryptamine receptor 1D (Homo sapiens, UniProt P28221). The assay is described as follows: Binding affinity to 5HT1D receptor (unknown origin) assessed as inhibition constant.
Assay [8] addresses Sodium-dependent noradrenaline transporter (Homo sapiens) (UniProt P23975). The assay is described as follows: Inhibition of NET receptor (unknown origin). The settings on record: concentration not given here.
In assay [9] the target is T3, Alpha-1D adrenergic receptor (Homo sapiens) (UniProt P25100).
T3 sequence (whole entry): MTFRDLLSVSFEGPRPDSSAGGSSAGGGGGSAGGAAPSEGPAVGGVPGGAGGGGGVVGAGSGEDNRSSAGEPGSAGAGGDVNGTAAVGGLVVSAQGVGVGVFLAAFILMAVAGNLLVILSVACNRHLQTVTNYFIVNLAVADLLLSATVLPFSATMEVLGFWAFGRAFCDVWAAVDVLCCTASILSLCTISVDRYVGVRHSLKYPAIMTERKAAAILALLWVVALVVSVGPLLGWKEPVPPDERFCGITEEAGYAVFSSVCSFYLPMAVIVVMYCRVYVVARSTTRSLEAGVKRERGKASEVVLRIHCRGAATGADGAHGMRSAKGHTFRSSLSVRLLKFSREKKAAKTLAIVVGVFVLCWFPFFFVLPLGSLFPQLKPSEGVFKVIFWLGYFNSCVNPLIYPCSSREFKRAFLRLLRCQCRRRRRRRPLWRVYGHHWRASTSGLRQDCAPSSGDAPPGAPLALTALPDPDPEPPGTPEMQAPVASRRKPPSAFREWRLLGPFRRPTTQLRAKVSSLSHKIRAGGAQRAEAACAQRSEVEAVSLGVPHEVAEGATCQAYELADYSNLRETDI
The assay is described as follows: Inhibition of alpha1D receptor (unknown origin). The settings on record: concentration not given here.

In assay [10] the target is D(1A) dopamine receptor (Homo sapiens) (UniProt P21728). The assay is described as follows: Inhibition of D1 receptor (unknown origin). As to conditions: concentration not given here.
Assay [11] has as its target T4, Alpha-2B adrenergic receptor (Homo sapiens) (UniProt P18089).
T4 sequence (whole entry): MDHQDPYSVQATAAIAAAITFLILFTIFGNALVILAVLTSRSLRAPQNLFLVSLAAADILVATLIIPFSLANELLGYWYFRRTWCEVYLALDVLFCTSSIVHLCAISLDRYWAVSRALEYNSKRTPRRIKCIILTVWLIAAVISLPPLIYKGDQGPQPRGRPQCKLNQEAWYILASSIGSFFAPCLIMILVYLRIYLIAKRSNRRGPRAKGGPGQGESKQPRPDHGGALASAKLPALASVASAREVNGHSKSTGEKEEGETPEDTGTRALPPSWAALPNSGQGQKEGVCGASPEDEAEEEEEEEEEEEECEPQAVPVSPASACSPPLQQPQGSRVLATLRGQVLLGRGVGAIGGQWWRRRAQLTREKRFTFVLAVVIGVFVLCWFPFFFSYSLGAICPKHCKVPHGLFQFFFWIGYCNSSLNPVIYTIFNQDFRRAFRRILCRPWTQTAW
The assay is described as follows: Inhibition of alpha2B receptor (unknown origin). The settings on record: concentration not given here.

In assay [12] the target is Delta-type opioid receptor (Homo sapiens) (UniProt P41143). As to the kind of experiment: Inhibition of DOR receptor (unknown origin). As to conditions: concentration not given here.
In assay [13] the target is Sodium-dependent serotonin transporter (Homo sapiens, UniProt P31645). As to the kind of experiment: Inhibition of SERT receptor (unknown origin). The settings on record: concentration not given here.
Sequence of Sodium-dependent serotonin transporter (P31645 whole entry, looked up): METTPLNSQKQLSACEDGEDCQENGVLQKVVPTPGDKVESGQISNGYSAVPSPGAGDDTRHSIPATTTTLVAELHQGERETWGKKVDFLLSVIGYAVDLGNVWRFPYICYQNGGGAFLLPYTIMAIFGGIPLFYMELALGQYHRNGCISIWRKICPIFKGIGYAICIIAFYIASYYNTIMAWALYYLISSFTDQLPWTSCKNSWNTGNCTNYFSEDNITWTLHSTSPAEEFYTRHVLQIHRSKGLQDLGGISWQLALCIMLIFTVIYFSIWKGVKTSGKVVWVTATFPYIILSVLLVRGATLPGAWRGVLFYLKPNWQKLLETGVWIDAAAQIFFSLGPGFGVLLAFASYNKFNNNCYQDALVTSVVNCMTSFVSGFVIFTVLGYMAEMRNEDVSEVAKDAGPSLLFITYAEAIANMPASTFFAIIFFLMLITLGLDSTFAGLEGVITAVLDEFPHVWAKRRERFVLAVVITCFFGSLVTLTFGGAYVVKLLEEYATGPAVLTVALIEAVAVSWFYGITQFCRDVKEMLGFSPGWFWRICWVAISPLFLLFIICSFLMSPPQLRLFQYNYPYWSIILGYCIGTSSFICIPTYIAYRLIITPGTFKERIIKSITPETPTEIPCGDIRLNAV

Sequence of Delta-type opioid receptor (Homo sapiens) (P41143 whole entry): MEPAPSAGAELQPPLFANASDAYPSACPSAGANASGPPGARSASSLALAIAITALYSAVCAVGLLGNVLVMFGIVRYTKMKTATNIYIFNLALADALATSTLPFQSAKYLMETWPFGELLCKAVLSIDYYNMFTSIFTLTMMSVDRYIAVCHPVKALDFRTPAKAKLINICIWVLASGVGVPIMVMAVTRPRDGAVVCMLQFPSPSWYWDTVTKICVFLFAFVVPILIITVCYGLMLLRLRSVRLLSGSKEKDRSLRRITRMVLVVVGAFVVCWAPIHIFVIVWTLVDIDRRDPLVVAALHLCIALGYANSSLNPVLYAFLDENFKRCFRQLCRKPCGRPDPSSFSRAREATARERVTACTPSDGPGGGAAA
Sequence of D(1A) dopamine receptor (Homo sapiens) (P21728 whole entry): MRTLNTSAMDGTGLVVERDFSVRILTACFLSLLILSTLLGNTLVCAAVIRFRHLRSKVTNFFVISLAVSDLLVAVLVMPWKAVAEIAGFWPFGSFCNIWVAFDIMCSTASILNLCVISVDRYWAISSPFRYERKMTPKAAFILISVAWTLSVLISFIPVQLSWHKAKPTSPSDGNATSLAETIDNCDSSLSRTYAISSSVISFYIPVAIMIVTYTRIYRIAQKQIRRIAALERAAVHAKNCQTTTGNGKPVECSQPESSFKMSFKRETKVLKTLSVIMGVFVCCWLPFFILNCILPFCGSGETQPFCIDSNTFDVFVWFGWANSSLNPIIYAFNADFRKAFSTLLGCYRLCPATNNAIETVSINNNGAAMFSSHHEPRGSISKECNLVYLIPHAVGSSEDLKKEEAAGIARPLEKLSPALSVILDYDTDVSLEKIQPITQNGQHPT
Sequence of 5-hydroxytryptamine receptor 6 (P50406 whole entry): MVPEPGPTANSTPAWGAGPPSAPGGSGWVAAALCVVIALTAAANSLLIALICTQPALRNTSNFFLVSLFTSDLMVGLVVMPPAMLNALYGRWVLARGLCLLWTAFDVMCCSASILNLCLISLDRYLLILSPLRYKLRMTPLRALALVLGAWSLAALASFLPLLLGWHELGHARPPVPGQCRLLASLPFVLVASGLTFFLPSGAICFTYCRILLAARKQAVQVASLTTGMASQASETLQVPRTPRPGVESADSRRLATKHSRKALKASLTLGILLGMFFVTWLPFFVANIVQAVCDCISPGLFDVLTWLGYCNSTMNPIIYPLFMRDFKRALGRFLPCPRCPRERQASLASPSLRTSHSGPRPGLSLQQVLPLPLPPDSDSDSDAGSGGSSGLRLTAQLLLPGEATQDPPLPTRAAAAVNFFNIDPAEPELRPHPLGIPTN
Sequence of 5-hydroxytryptamine receptor 1D (P28221 whole entry): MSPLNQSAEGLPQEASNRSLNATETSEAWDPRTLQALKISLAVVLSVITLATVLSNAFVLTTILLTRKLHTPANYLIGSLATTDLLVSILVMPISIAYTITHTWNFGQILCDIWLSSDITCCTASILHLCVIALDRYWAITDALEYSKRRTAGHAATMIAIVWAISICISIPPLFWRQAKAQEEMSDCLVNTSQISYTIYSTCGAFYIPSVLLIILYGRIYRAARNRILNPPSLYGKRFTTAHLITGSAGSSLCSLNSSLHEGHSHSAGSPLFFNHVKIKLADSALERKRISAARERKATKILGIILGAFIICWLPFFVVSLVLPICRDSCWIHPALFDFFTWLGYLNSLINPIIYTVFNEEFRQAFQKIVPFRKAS
Sequence of 5-hydroxytryptamine receptor 1B (P28222 whole entry): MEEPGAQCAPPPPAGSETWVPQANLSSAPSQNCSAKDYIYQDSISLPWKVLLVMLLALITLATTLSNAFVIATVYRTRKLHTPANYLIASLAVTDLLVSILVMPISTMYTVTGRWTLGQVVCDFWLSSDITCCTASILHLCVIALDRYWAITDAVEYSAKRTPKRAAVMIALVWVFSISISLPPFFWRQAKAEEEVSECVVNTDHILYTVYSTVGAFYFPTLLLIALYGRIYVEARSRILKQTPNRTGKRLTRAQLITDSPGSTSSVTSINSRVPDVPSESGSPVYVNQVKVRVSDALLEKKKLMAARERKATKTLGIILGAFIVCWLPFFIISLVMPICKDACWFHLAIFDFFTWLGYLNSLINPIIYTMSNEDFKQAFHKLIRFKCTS
Sequence of 5-hydroxytryptamine receptor 2A (P28223 whole entry): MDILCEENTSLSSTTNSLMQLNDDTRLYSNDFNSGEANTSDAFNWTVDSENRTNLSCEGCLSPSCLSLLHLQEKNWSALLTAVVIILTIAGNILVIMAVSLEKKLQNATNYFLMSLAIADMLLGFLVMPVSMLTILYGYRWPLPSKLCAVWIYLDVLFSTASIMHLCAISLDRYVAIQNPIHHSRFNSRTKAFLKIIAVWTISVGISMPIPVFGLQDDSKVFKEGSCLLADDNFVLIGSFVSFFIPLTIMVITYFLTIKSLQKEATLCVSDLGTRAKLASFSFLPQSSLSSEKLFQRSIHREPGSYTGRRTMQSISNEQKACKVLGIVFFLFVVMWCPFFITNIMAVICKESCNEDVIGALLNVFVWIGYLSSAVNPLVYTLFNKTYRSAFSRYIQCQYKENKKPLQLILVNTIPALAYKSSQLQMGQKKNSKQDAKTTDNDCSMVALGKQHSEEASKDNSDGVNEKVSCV
Sequence of Kappa-type opioid receptor (Homo sapiens) (P41145 whole entry): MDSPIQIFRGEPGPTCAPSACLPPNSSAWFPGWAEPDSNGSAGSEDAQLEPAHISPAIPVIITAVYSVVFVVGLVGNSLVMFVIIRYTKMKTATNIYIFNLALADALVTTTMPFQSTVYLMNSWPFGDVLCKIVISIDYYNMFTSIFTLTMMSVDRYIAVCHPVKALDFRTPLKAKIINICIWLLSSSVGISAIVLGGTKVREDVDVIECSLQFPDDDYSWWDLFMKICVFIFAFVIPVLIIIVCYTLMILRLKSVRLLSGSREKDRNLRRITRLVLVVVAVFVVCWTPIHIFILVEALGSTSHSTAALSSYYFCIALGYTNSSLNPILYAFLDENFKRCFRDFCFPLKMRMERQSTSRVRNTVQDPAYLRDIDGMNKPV
Sequence of Sodium-dependent noradrenaline transporter (Homo sapiens) (P23975 whole entry): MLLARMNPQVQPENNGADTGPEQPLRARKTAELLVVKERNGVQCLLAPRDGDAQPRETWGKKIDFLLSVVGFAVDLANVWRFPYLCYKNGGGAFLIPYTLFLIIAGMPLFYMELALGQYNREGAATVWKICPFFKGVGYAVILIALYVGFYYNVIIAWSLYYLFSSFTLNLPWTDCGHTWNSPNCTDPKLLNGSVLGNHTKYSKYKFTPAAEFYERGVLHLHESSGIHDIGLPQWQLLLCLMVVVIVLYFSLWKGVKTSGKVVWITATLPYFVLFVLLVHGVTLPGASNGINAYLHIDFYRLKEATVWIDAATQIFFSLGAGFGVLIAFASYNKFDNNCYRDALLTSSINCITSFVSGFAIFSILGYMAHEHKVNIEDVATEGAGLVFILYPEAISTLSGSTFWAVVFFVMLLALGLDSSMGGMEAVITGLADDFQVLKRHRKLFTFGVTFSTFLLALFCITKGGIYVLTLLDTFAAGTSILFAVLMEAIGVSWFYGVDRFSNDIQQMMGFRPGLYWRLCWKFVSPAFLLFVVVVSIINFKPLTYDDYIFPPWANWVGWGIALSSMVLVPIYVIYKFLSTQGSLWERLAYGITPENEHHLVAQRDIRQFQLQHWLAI

As to `COc1ccc(C2NCCc3c2[nH]c2ccc(F)cc32)c(O)c1` (stereo not given), the Emax in [1] amounted to 102%. Also, the Ki in assay [2] was determined as 94.4 nM; in [4] it was 70.8 nM; in [6] it was 68.8 nM; in [7] it was 110 nM. Besides, the inhibition in assay [3], in [5], in [8], in assay [9], in [10] and in assay [11] was less than 50% each time. In assay [12], this compound showed an inhibition of less than 50%.

In the case of `COc1cc(OC)c(C2NCCc3c2[nH]c2ccc(Cl)cc32)cc1OC` (stereo not given), the Emax in assay [1] was determined as 98.4%. Moreover, the inhibition constant Ki in assay [2] was 22.4 nM; in assay [4], 52.1 nM; in assay [6] it was 29 nM; in assay [7], 38.8 nM. Besides, the inhibition in assay [3], in assay [13], in [5], in assay [8], in [9] and in [10] was less than 50% each time. The inhibition in assay [11] and in assay [12] was less than 50% each time.

With `COc1cc(OC)c(C2NCCc3c2[nH]c2ccc(F)cc32)cc1OC` (stereo not given), the Emax in assay [1] stood at 97.1%. The values for the Ki in [2], in assay [6] and in [7] were 1370 nM, 530 nM and 660 nM, respectively. In addition, the inhibition in assay [3], in assay [13], in [5], in assay [8], in assay [9] and in assay [10] was less than 50% in each case. For the same compound, the inhibition in assay [11] and in assay [12] was less than 50% in each case.

Take `COc1ccc(C2NCCc3c2[nH]c2ccc(Cl)cc32)c(O)c1` (stereo not given): the Emax in assay [1] came out at 100%. Also, the Ki came to 79.9 nM in assay [2], 164 nM in assay [4], 47.7 nM in assay [6] and 31.5 nM in assay [7]. Also, the inhibition in [3], in [13], in assay [5], in [8], in [9] and in assay [10] was less than 50% throughout. The inhibition in assay [11] and in assay [12] was less than 50% in each case.
